“And” between values parts separate entries of the source, which are not always exact repeats. Identical values can stand only once.
System: anesthetized PAH minipigs
Assay: PAH minipig, intratracheal application of dry powder formulations and of different hydrates (PAP, BP)
Type: in vivo, Göttingen Minipigs
Settings: for efficacy with regard to PAP reduction and systemic BP reduction: micronized hydrates; for BP (mean) / PAP(mean): per animal; for % changes vs. baseline on PAP: intratracheal application
Experimental: Healthy Göttingen Minipigs® Ellegaard (Ellegaard, Denmark) of both sexes and having a weight of 2-6 kg were used. The animals were sedated by i.m. administration of about 25 mg/kg ketamine and about 10 mg/kg azaperone. Anaesthesia was initiated by i.v. administration of about 2 mg/kg ketamine and about 0.3 mg/kg midazolam. Maintenance of anaesthesia was by i.v. administration of about 7.5-30 mg/kg/h ketamine and about 1-4 mg/kg/h midazolam (rate of infusion 1-4 ml/kg/h) and about 150 μg/kg/h pancuronium bromide (for example Pancuronium-Actavis). After intubation, the animals were ventilated by the ventilator at a constant respiratory volume (10-12 ml/kg, 35 breaths/min; Avea®, Viasys Healthcare, USA, or Engström Carestation, GE Healthcare, Freiburg, Germany) such that an end-tidal CO2 concentration of about 5% was achieved. Ventilation was performed with room air, enriched with about 40% oxygen (normoxia). For the measurement of the haemodynamic parameters such as pulmonary arterial pressure (PAP), blood pressure (BP) and heart rate (HR), catheters were inserted into the carotid artery to measure the blood pressure, and a Swan-Ganz® catheter was introduced in a flow-directed manner via the jugular vein into the pulmonary artery. The haemodynamic signals were recorded and evaluated by means of pressure transducers (Combitransducer, B. Braun, Melsungen, Germany)/amplifiers and Ponemah® as data acquisition software.
About 0.3-0.75 μg/kg/min of 9,11-didesoxy-9α,11α-epoxymethanoprostaglandine F2α (U-44069; Sigma, cat. no. D0400, or Cayman Chemical Company, cat. no. 16440), dissolved in physiological saline, were infused to achieve an increase of the mean pulmonary arterial pressure to values of over 25 mmHg.
After characterization of the effects of comparative example 11 after nebulization of compound solutions, in a further step the effects of crystalline forms of comparative example 11, e.g. sesquihydrate, e.g. example 6e on PAP and BP after inhaled application of different dry powder lactose formulations (table 52) were studied in anesthetized PAH minipigs.
As reference pure Lactose vehicle was applied in the beginning of each experiment.

[1] = 375 μg/kg i.t., time 0, Sesquihydrate
[2] = 375 μg/kg i.t., time −10, Sesquihydrate
[3] = % vs. prevalues, 375 μg/kg i.t., time 60, each animal
[4] = % vs. prevalues, 375 μg/kg i.t., time 70, each animal

SMILES: O.O.O.O=C(O)c1ccc(CCN(CCc2ccccc2OCc2ccc(-c3ccc(C(F)(F)F)cc3)cc2Cl)[C@H]2CCCc3nc(C(=O)O)ccc32)cc1.O=C(O)c1ccc(CCN(CCc2ccccc2OCc2ccc(-c3ccc(C(F)(F)F)cc3)cc2Cl)[C@H]2CCCc3nc(C(=O)O)ccc32)cc1 [Example 6e, (5S)—{[2-(4-Carboxyphenyl)ethyl][2-(2-{[3-chloro-4′-(trifluoromethyl)biphenyl-4-yl]methoxy}phenyl)-ethyl]amino}-5,6,7,8-tetrahydroquinoline-2-carboxylic Acid Sesquihydrate]
- efficacy with regard to PAP reduction and systemic BP reduction (375 μg/kg i.t.): comparable efficacy
- BP (mean) [1]: 104 mmHg
- PAP(mean) [1]: 41.9 mmHg
- BP (mean) [2]: 107 mmHg
- PAP(mean) [2]: 36.4 mmHg and 37.5 mmHg
- % changes vs. baseline on PAP (time 80 (baseline = 100), each animal): 100.0%
- % changes vs. baseline on PAP (time 90, each animal, Sesquihydrate): 98.9% and 103.6% and 99.8%
- % changes vs. baseline on PAP (time 100, each animal, Sesquihydrate): 99.5% and 101.4% and 97.3%
- % changes vs. baseline on PAP (time 110, each animal, Sesquihydrate): 89.3% and 98.7% and 86.8%
- % changes vs. baseline on PAP (time 120, each animal, Sesquihydrate): 84.0% and 95.6% and 75.7%
- % changes vs. baseline on PAP (time 130, each animal, Sesquihydrate): 78.9% and 93.7% and 70.2%
- % changes vs. baseline on PAP (time 140, each animal, Sesquihydrate): 75.2% and 91.8% and 67.5%
- % changes vs. baseline on PAP (time 150, each animal, Sesquihydrate): 74.0% and 76.0% and 65.4%
- % changes vs. baseline on PAP (time 160, each animal, Sesquihydrate): 71.0% and 79.5% and 65.9%
- % changes vs. baseline on PAP (time 170, each animal, Sesquihydrate): 68.5% and 74.3% and 61.5%
- % changes vs. baseline on PAP (time 180, each animal, Sesquihydrate): 63.2% and 80.8% and 62.0%
- % changes vs. baseline on PAP (time 190, each animal, Sesquihydrate): 61.5% and 80.8% and 58.6%
- % changes vs. baseline on PAP (time 200, each animal, Sesquihydrate): 62.3% and 80.3% and 60.2%
- % changes vs. baseline on PAP (time 210, each animal, Sesquihydrate): 61.0% and 80.7% and 59.4%
- % changes vs. baseline on PAP (time 220, each animal, Sesquihydrate): 59.5% and 86.3% and 57.8%
- % changes vs. baseline on PAP (time 230, each animal, Sesquihydrate): 58.6% and 82.6% and 57.8%
- % changes vs. baseline on PAP (time 240, each animal, Sesquihydrate): 59.3% and 81.5% and 57.6%
- % changes vs. baseline on PAP (time 250, each animal, Sesquihydrate): 59.3% and 82.2% and 56.1%
- % changes vs. baseline on PAP (time 260, each animal, Sesquihydrate): 58.8% and 82.7% and 57.6%
- % changes vs. baseline on PAP (time 270, each animal, Sesquihydrate): 59.9% and 78.3% and 55.4%
- % changes vs. baseline on PAP (time 280, each animal, Sesquihydrate): 58.4% and 78.3% and 55.9%
- % changes vs. baseline on PAP (time 290, each animal, Sesquihydrate): 57.4% and 79.6% and 53.9%
- % changes vs. baseline on PAP (time 300, each animal, Sesquihydrate): 60.1% and 78.7% and 54.5%
- % changes vs. baseline on PAP (time 310, each animal, Sesquihydrate): 58.4% and 77.6% and 53.7%
- % changes vs. baseline on PAP (time 320, each animal, Sesquihydrate): 61.8% and 76.3% and 55.1%
- % changes vs. baseline on PAP (time 330, each animal, Sesquihydrate): 61.3% and 74.8% and 53.0%
- PAP (time 20 min, lactose vehicle first, test powder 1.5 mg/4 kg i.t. @90 min, per animal (n = 3), Sesquihydrate): 42.0 mmHg and 37.5 mmHg
- BP (time 30 min, lactose vehicle first, test powder 1.5 mg/4 kg i.t. @90 min, per animal (n = 3)): 104 mmHg
- PAP (time 30 min, lactose vehicle first, test powder 1.5 mg/4 kg i.t. @90 min, per animal (n = 3), Sesquihydrate): 41.9 mmHg and 37.1 mmHg and 37.5 mmHg
- PAP (time 40 min, lactose vehicle first, test powder 1.5 mg/4 kg i.t. @90 min, per animal (n = 3), Sesquihydrate): 42.0 mmHg and 37.3 mmHg and 38.6 mmHg
- PAP (time 50 min, lactose vehicle first, test powder 1.5 mg/4 kg i.t. @90 min, per animal (n = 3), Sesquihydrate): 41.4 mmHg and 37.4 mmHg and 39.8 mmHg
- PAP (time 60 min, lactose vehicle first, test powder 1.5 mg/4 kg i.t. @90 min, per animal (n = 3), Sesquihydrate): 41.4 mmHg and 36.8 mmHg and 41.2 mmHg
- PAP (time 70 min, lactose vehicle first, test powder 1.5 mg/4 kg i.t. @90 min, per animal (n = 3), Sesquihydrate): 41.0 mmHg and 37.4 mmHg and 41.3 mmHg
- PAP (time 80 min, lactose vehicle first, test powder 1.5 mg/4 kg i.t. @90 min, per animal (n = 3), Sesquihydrate): 40.9 mmHg and 38.1 mmHg and 40.8 mmHg
- BP (time 90 min, lactose vehicle first, test powder 1.5 mg/4 kg i.t. @90 min, per animal (n = 3)): 102 mmHg
- PAP (time 90 min, lactose vehicle first, test powder 1.5 mg/4 kg i.t. @90 min, per animal (n = 3), Sesquihydrate): 40.4 mmHg and 39.5 mmHg

SMILES: O.O=C(O)c1ccc(CCN(CCc2ccccc2OCc2ccc(-c3ccc(C(F)(F)F)cc3)cc2Cl)[C@H]2CCCc3nc(C(=O)O)ccc32)cc1.O=C(O)c1ccc(CCN(CCc2ccccc2OCc2ccc(-c3ccc(C(F)(F)F)cc3)cc2Cl)[C@H]2CCCc3nc(C(=O)O)ccc32)cc1 [Example 6a, (5S)—{[2-(4-Carboxyphenyl)ethyl][2-(2-{[3-chloro-4′-(trifluoromethyl)biphenyl-4-yl]methoxy}phenyl)-ethyl]amino}-5,6,7,8-tetrahydroquinoline-2-carboxylic Acid Semihydrate]
- efficacy with regard to PAP reduction and systemic BP reduction (375 μg/kg i.t.): comparable efficacy
- PAP(mean) (375 μg/kg i.t., time 170): 24.0 mmHg and 32.4 mmHg and 29.9 mmHg
- BP (mean) (375 μg/kg i.t., time 180): 94 mmHg
- PAP(mean) (375 μg/kg i.t., time 180): 23.7 mmHg
- BP (mean) (375 μg/kg i.t., time 190): 94 mmHg and 93 mmHg
- PAP(mean) (375 μg/kg i.t., time 190): 24.4 mmHg and 32.4 mmHg and 29.2 mmHg
- PAP(mean) (375 μg/kg i.t., time 200): 24.8 mmHg and 32.4 mmHg and 29.4 mmHg
- BP (mean) (375 μg/kg i.t., time 210): 91 mmHg
- PAP(mean) (375 μg/kg i.t., time 210): 24.8 mmHg and 29.2 mmHg
- PAP(mean) (375 μg/kg i.t., time 220): 24.7 mmHg and 29.1 mmHg
- PAP(mean) (375 μg/kg i.t., time 230): 24.0 mmHg
- BP (mean) (375 μg/kg i.t., time 240): 77 mmHg
- PAP(mean) (375 μg/kg i.t., time 240): 24.1 mmHg and 28.1 mmHg
- BP (mean) (375 μg/kg i.t., time 250): 76 mmHg
- PAP(mean) (375 μg/kg i.t., time 250): 24.2 mmHg and 28.1 mmHg
- BP (mean) (375 μg/kg i.t., time 260): 76 mmHg
- PAP(mean) (375 μg/kg i.t., time 260): 24.1 mmHg and 30.6 mmHg and 28.1 mmHg
- BP (mean) (375 μg/kg i.t., time 270): 76 mmHg
- PAP(mean) (375 μg/kg i.t., time 270): 24.4 mmHg and 30.6 mmHg and 27.8 mmHg
- BP (mean) (375 μg/kg i.t., time 280): 75 mmHg
- PAP(mean) (375 μg/kg i.t., time 280): 24.3 mmHg and 28.0 mmHg
- BP (mean) (375 μg/kg i.t., time 290): 75 mmHg
- PAP(mean) (375 μg/kg i.t., time 290): 24.1 mmHg and 27.6 mmHg
- BP (mean) (375 μg/kg i.t., time 300): 77 mmHg
- PAP(mean) (375 μg/kg i.t., time 300): 23.7 mmHg and 30.5 mmHg and 27.7 mmHg
- BP [3]: 100.6% and 99.7% and 97.2%
- PAP [3]: 100.7% and 99.4% and 99.2%
- BP [4]: 102.6%
- PAP [4]: 94.7%
